From ChEMBL document CHEMBL3745696, “Synthesis and cytotoxic activity of novel hexahydropyrrolo[2,3-b]indole imidazolium salts” (Bioorg Med Chem Lett, 2016)

Columns and labels:
Format in all cases: functional, cell-based
[1] = system: SW480; experiment: Cytotoxicity against human SW480 cells by MTT assay
[2] = system: A549; experiment: Cytotoxicity against human A549 cells by MTT assay
[3] = Cytotoxicity against human SMMC7721 cells by MTT assay; details: SMMC-7721
[4] = system: MCF7; experiment: Cytotoxicity against human MCF7 cells by MTT assay
[5] = Cytotoxicity against human HL60 cells by MTT assay; details: HL-60

Structure (SMILES)	IC50 [1]	IC50 [2]	IC50 [3]	IC50 [4]	IC50 [5]
CN1c2ccccc2C2(C)CCN(C(=O)Cn3cnc4ccccc43)C12 (stereo not given)	> 20 µM	> 20 µM	> 20 µM	> 20 µM	> 20 µM
CN1c2ccccc2C2(C)CCN(C(=O)Cn3ccnc3)C12 (stereo not given)	> 20 µM	> 20 µM	> 20 µM	> 20 µM	> 20 µM
Cc1cc2c(cc1C)[n+](Cc1ccccc1Br)cn2CC(=O)N1CCC2(C)c3ccccc3N(C)C12 (stereo not given)	7.24 µM	12.7 µM	5.61 µM	6.28 µM	1.67 µM
Cc1n(CC(=O)N2CCC3(C)c4ccccc4N(Cc4ccccc4)C23)c2ccccc2[n+]1CC(=O)c1ccc(Br)cc1 (stereo not given)	8.86 µM	9.87 µM	5.99 µM	7.37 µM	4.25 µM
Cc1n(CC(=O)N2CCC3(C)c4ccccc4N(C)C23)c2ccccc2[n+]1CC(=O)c1ccccc1 (stereo not given)	> 20 µM	> 20 µM	> 20 µM	> 20 µM	> 20 µM
CC12CCN(C(=O)Cn3c[n+](CC(=O)c4ccc5ccccc5c4)c4ccccc43)C1N(Cc1ccccc1)c1ccccc12 (stereo not given)	6.88 µM	7.4 µM	7.62 µM	5.13 µM	1.64 µM
Cc1n(CC(=O)N2CCC3(C)c4ccccc4N(Cc4ccccc4)C23)c2ccccc2[n+]1Cc1ccc(Br)cc1 (stereo not given)	6.11 µM	7.91 µM	5.1 µM	2.4 µM	1.35 µM
Cc1ccc(C[n+]2cn(CC(=O)N3CCC4(C)c5ccccc5N(Cc5ccccc5)C34)c3ccccc32)cc1 (stereo not given)	6.57 µM	6.23 µM	4.98 µM	2.72 µM	1.2 µM
Cc1nccn1CC(=O)N1CCC2(C)c3ccccc3N(C)C12 (stereo not given)	> 20 µM	> 20 µM	> 20 µM	> 20 µM	> 20 µM
COc1ccc(C(=O)C[n+]2c(C)n(CC(=O)N3CCC4(C)c5ccccc5N(C)C34)c3ccccc32)cc1 (stereo not given)	> 20 µM	> 20 µM	> 20 µM	> 20 µM	> 20 µM
Cc1n(CC(=O)N2CCC3(C)c4ccccc4N(C)C23)c2ccccc2[n+]1Cc1ccc2ccccc2c1 (stereo not given)	7.36 µM	16.7 µM	4.34 µM	5.09 µM	1.49 µM
Cc1n(CC(=O)N2CCC3(C)c4ccccc4N(C)C23)cc[n+]1CC(=O)c1ccc(Br)cc1 (stereo not given)	> 20 µM	> 20 µM	> 20 µM	> 20 µM	> 20 µM
CN1c2ccccc2C2(C)CCN(C(=O)Cn3c[n+](CC(=O)c4ccc5ccccc5c4)c4ccccc43)C12 (stereo not given)	8.56 µM	> 20 µM	> 20 µM	11 µM	5.98 µM
Cc1n(CC(=O)N2CCC3(C)c4ccccc4N(Cc4ccccc4)C23)cc[n+]1CC(=O)c1ccccc1 (stereo not given)	> 20 µM	> 20 µM	> 20 µM	> 20 µM	> 20 µM
Cc1n(CC(=O)N2CCC3(C)c4ccccc4N(C)C23)c2ccccc2[n+]1Cc1ccccc1Br (stereo not given)	> 20 µM	> 20 µM	10.8 µM	8.95 µM	3.72 µM
CN1c2ccccc2C2(C)CCN(C(=O)Cn3cc[n+](CC(=O)c4ccccc4)c3)C12 (stereo not given)	> 20 µM	> 20 µM	> 20 µM	> 20 µM	> 20 µM
Cc1nc2ccccc2n1CC(=O)N1CCC2(C)c3ccccc3N(C)C12 (stereo not given)	> 20 µM	> 20 µM	> 20 µM	> 20 µM	> 20 µM
Cc1n(CC(=O)N2CCC3(C)c4ccccc4N(C)C23)c2ccccc2[n+]1CC(=O)c1ccc2ccccc2c1 (stereo not given)	10.1 µM	7.64 µM	7.09 µM	9.45 µM	5.95 µM
Cc1nc2ccccc2n1CC(=O)N1CCC2(C)c3ccccc3N(Cc3ccccc3)C12 (stereo not given)	> 20 µM	> 20 µM	> 20 µM	> 20 µM	> 20 µM
Cc1cc2ncn(CC(=O)N3CCC4(C)c5ccccc5N(Cc5ccccc5)C34)c2cc1C (stereo not given)	> 20 µM	> 20 µM	> 20 µM	> 20 µM	> 20 µM
COc1ccc(C(=O)C[n+]2c(C)n(CC(=O)N3CCC4(C)c5ccccc5N(Cc5ccccc5)C34)c3ccccc32)cc1 (stereo not given)	8.38 µM	12.5 µM	8.83 µM	6.99 µM	4.18 µM
Cc1n(CC(=O)N2CCC3(C)c4ccccc4N(Cc4ccccc4)C23)c2ccccc2[n+]1CC(=O)c1ccccc1 (stereo not given)	8.31 µM	14.7 µM	9.28 µM	6.35 µM	4.64 µM
Cc1cc2c(cc1C)[n+](CC(=O)c1ccc(Br)cc1)cn2CC(=O)N1CCC2(C)c3ccccc3N(C)C12 (stereo not given)	8.52 µM	> 20 µM	8.72 µM	8.28 µM	7.31 µM

Structure (SMILES)	IC50 [1]	IC50 [2]	IC50 [3]	IC50 [4]	IC50 [5]
Cc1ccc(C[n+]2ccn(CC(=O)N3CCC4(C)c5ccccc5N(C)C34)c2C)cc1 (stereo not given)	> 20 µM	> 20 µM	> 20 µM	> 20 µM	> 20 µM
Cc1cc2c(cc1C)[n+](Cc1ccc3ccccc3c1)cn2CC(=O)N1CCC2(C)c3ccccc3N(C)C12 (stereo not given)	4.54 µM	6.18 µM	4.03 µM	1.84 µM	1.35 µM
COc1ccc(C(=O)C[n+]2cn(CC(=O)N3CCC4(C)c5ccccc5N(C)C34)c3cc(C)c(C)cc32)cc1 (stereo not given)	11.1 µM	> 20 µM	7.49 µM	8.15 µM	6.23 µM
CN1c2ccccc2C2(C)CCN(C(=O)Cn3c[n+](CC(=O)c4ccccc4)c4ccccc43)C12 (stereo not given)	> 20 µM	> 20 µM	> 20 µM	> 20 µM	> 20 µM
c1c[nH]cn1 [IMIDAZOLE]	> 20 µM	> 20 µM	> 20 µM	> 20 µM	> 20 µM
COc1ccc(C(=O)C[n+]2cn(CC(=O)N3CCC4(C)c5ccccc5N(C)C34)c3ccccc32)cc1 (stereo not given)	> 20 µM	> 20 µM	> 20 µM	> 20 µM	> 20 µM
Cc1ccc(C[n+]2c(C)n(CC(=O)N3CCC4(C)c5ccccc5N(Cc5ccccc5)C34)c3ccccc32)cc1 (stereo not given)	1.62 µM	6.63 µM	2.97 µM	1.98 µM	1.25 µM
CC12CCN(C(=O)Cn3c[n+](CC(=O)c4ccccc4)c4ccccc43)C1N(Cc1ccccc1)c1ccccc12 (stereo not given)	8.43 µM	> 20 µM	14.5 µM	8.16 µM	5.72 µM
CN1c2ccccc2C2(C)CCN(C(=O)Cn3c[n+](CC(=O)c4ccc(Br)cc4)c4ccccc43)C12 (stereo not given)	> 20 µM	> 20 µM	> 20 µM	> 20 µM	> 20 µM
Cc1cc2c(cc1C)[n+](Cc1ccc(Br)cc1)cn2CC(=O)N1CCC2(C)c3ccccc3N(C)C12 (stereo not given)	6.9 µM	17.4 µM	5.69 µM	3.08 µM	1.73 µM
Cc1cc2c(cc1C)[n+](Cc1ccc(Br)cc1)cn2CC(=O)N1CCC2(C)c3ccccc3N(Cc3ccccc3)C12 (stereo not given)	1.41 µM	6.37 µM	3.59 µM	1.72 µM	1.29 µM
COc1ccc(C(=O)C[n+]2ccn(CC(=O)N3CCC4(C)c5ccccc5N(Cc5ccccc5)C34)c2C)cc1 (stereo not given)	> 20 µM	> 20 µM	> 20 µM	10.6 µM	1.3 µM
Cc1n(CC(=O)N2CCC3(C)c4ccccc4N(Cc4ccccc4)C23)cc[n+]1CC(=O)c1ccc(Br)cc1 (stereo not given)	> 20 µM	> 20 µM	> 20 µM	> 20 µM	7.75 µM
Cc1ccc(C[n+]2cn(CC(=O)N3CCC4(C)c5ccccc5N(C)C34)c3ccccc32)cc1 (stereo not given)	> 20 µM	> 20 µM	> 20 µM	9.47 µM	5.13 µM
Cc1n(CC(=O)N2CCC3(C)c4ccccc4N(C)C23)cc[n+]1Cc1ccc(Br)cc1 (stereo not given)	> 20 µM	> 20 µM	> 20 µM	> 20 µM	> 20 µM
Cc1cc2c(cc1C)[n+](CC(=O)c1ccc3ccccc3c1)cn2CC(=O)N1CCC2(C)c3ccccc3N(C)C12 (stereo not given)	5.01 µM	6.47 µM	2.85 µM	4.88 µM	1.6 µM
CC12CCN(C(=O)Cn3c[n+](Cc4ccccc4Br)c4ccccc43)C1N(Cc1ccccc1)c1ccccc12 (stereo not given)	6.35 µM	6.76 µM	4.69 µM	2.23 µM	1.21 µM
COc1ccc(C(=O)C[n+]2cn(CC(=O)N3CCC4(C)c5ccccc5N(Cc5ccccc5)C34)c3cc(C)c(C)cc32)cc1 (stereo not given)	1.5 µM	7.4 µM	5.07 µM	2.35 µM	1.64 µM
Cc1cc2ncn(CC(=O)N3CCC4(C)c5ccccc5N(C)C34)c2cc1C (stereo not given)	> 20 µM	> 20 µM	> 20 µM	> 20 µM	> 20 µM
Cc1ccc(C[n+]2ccn(CC(=O)N3CCC4(C)c5ccccc5N(Cc5ccccc5)C34)c2C)cc1 (stereo not given)	9.71 µM	> 20 µM	19.5 µM	7.26 µM	0.47 µM
CC12CCN(C(=O)Cn3c[n+](CC(=O)c4ccc(Br)cc4)c4ccccc43)C1N(Cc1ccccc1)c1ccccc12 (stereo not given)	9.18 µM	8.07 µM	8.43 µM	8.15 µM	2.93 µM
COc1ccc(C(=O)C[n+]2ccn(CC(=O)N3CCC4(C)c5ccccc5N(C)C34)c2)cc1 (stereo not given)	> 20 µM	> 20 µM	> 20 µM	> 20 µM	> 20 µM
Cc1cc2c(cc1C)[n+](CC(=O)c1ccccc1)cn2CC(=O)N1CCC2(C)c3ccccc3N(Cc3ccccc3)C12 (stereo not given)	7.09 µM	6.54 µM	5.78 µM	3.51 µM	1.47 µM
